Laboratory results reported in patent US5491135A (priority 1993, dated 1996).
Values after ≈ are worked out from the molar mass of the structure shown. Values joined by “and” are separate entries in the source; they are usually repeats but may differ in a detail not shown here. Equal entries are not always repeated. “Also recorded” adds a separate entry of the source. Where two headings read alike, the source gives them in different places.

Tests used:
Sandfly fever virus [1] = experiment: microbe, parasite or virus in culture; conditions: sandfly fever Sicilian virus, Vero
[2] = Cytotoxicity in Hep-2 cells; conditions: human
Yellow fever virus = conditions: Vero
herpes virus-2 = experiment: In vitro antiviral assay; type: cell-based
Herpes-1 = experiment: In vitro antiviral assay; type: cell-based; conditions: Vero
Sandfly fever virus [3] = conditions: Vero
in vitro [4] = experiment: in vitro
Punta toro virus [5] = conditions: Vero
[6] = test system: duck hepatitis B virus (DHBV); experiment: Duck hepatitis B (DHBV) in primary duck hepatocyte culture; type: cell-based
Procedure: Using the duck hepatitis model (DHBV), primary duck hepatocyte cells were treated with various concentrations of PALA (disodium salt) and evaluated for cytopathic effect. In addition, viral DNA replication was assessed using "slot" dot blots. […] These experiments were performed three times with confirmatory results.

[7] = test system: respiratory syncytial virus (RSV); experiment: RSV infection in cotton rats, lung titre; type: in vivo, cotton rat; conditions: for RSV lung titre: individual animal
Text: 1. 50 to 100 g cotton rats of either sex inoculated i.n. with RS A2 (pool 8-28-92) on day 0.
2. On day +1 animals were given placebo or PALA as follows:
3. All animals killed on day +4 and their lungs tested for RSV levels.

[8] = test system: Venezuelan equine encephalitis virus; conditions: Vero; 50% inhibition
in vitro [9] = conditions: human, cem cells
Varicella = experiment: In vitro antiviral assay; type: cell-based; conditions: Vero
Punta toro virus [10] = experiment: microbe, parasite or virus in culture; conditions: Vero
HIV-1 = experiment: In vitro antiviral MTT CPE assay; type: cell-based
[11] = Cytotoxicity in human foreskin fibroblasts; conditions: hff cells
[12] = used alone; cited from earlier work
Coxsackie B3 = experiment: In vitro antiviral assay; type: cell-based
herpesvirus = conditions: less effective by a factor; cited from earlier work
Vero cells = conditions: uninfected
Vaccinia virus [13] = experiment: microbe, parasite or virus in culture; type: cell-based, vaccinia virus (Lederle vaccine); conditions: Vero
CMV = experiment: In vitro antiviral assay; type: cell-based
Paramyxo-3 = experiment: In vitro antiviral assay; type: cell-based
[14] = test system: Japanese encephalitis virus; conditions: Vero; 50% inhibition
humoral immune response = conditions: tumor bearing animals; cited from earlier work
[15] = test system: L-aspartic acid transcarbamylase (ATCase); conditions: cited from earlier work
vaccinia virus [16] = conditions: for Vaccinia Lesion Score: per monkey
RNA and DNA viruses = type: cell-based; conditions: most viruses of Table 3
[17] = day 8, PALA 125 mg/kg day 1 & 7
[18] = day 10, PALA 125 mg/kg day 1 & 7
[19] = day 10, PALA 50, rifampicin 10 mg/kg/d or both
[20] = day 13, PALA 125 mg/kg day 1 & 7
[21] = day 13, PALA 50, rifampicin 10 mg/kg/d or both

O=C(O)C[C@H](NC(=O)CP(=O)(O)O)C(=O)O [PALA]
IC50 (Sandfly fever virus [1]): 20.9 µg/mL (≈ 81.9 µM)
CC50 [2]: > 320 µg/mL
IC50 (Yellow fever virus): 13.4 µg/mL (≈ 52.5 µM)
TI (TC50/IC50) (Yellow fever virus; 50% inhibition): > 19.22 and > 23.82
TI(95) (Yellow fever virus; 95% inhibition): > 10.68 and > 10.38
inhibitory activity (herpes virus-2): no inhibitory activity
IC50 (Herpes-1): no inhibitory activity and None
IC50 (Sandfly fever virus [3]): 14.9 µg/mL (≈ 58.4 µM)
TI (TC50/IC50) (Sandfly fever virus [3]; 50% inhibition): > 15.32 and > 21.54
CC50 (in vitro [4]; uninfected vero cells): > 320 µg/mL
CC50 (in vitro [4]; vero cells): > 320 µg/mL
IC50 (Punta toro virus [5]): 18.4 µg/mL (≈ 72.1 µM)
TI (TC50/IC50) (Punta toro virus [5]; 50% inhibition): > 21.05 and > 17.35
TI(95) (Punta toro virus [5]; 95% inhibition): > 10.00
inhibition at 0.5 µM ([6]; Duck hepatitis B virus, Hepatocyte): 95%
toxicity ([6]; high concentrations): little or no toxicity
RSV lung titre, mean (SD) ([7]; PALA 3 mg/kg/day): 3.3 (0.3) LOG10 /G Lung
RSV lung titre ([7]; PALA 3 mg/kg): 3.9 LOG10 and 3.5 LOG10 and 2.9 LOG10 and 3.0 LOG10
RSV lung titre, mean (SD) ([7]; PALA 10 mg/kg/day): 2.8 (0.5) LOG10 /G Lung
decrease of viral titre over control ([7]; PALA 10 mg/kg/day): 1 log10
RSV lung titre ([7]; PALA 10 mg/kg): 2.4 LOG10 and 2.9 LOG10 and 2.5 LOG10 and 3.5 LOG10
efficacy against RSV ([7]; i.p.): more effective than ribavirin or combinational therapy; also recorded: statistically significant efficacy; also recorded: statistically better than ribavirin; also recorded: more effective as a single agent therapy in vivo against respiratory syncytial virus than ribavirin
TI (TC50/IC50) [8]: 0.00
CC50 (in vitro [9]): 60 µg/mL (≈ 235 µM)
IC50 (Varicella): 10 µg/mL (≈ 39.2 µM)
TI (Varicella): 32.0
IC50 (Punta toro virus [10]): 15.2 µg/mL (≈ 59.6 µM)
TI (HIV-1; CEM): ~ 5.0
IC50 (HIV-1; Human immunodeficiency virus 1, CCRF-CEM): 12 µg/mL (≈ 47 µM)
CC50 [11]: > 320 µg/mL
clinical efficacy in cancer [12]: relatively nonefficacious
IC50 (Coxsackie B3; Enterovirus B, B3, Vero): ~33 µg/mL (≈ 129 µM)
TI (Coxsackie B3; Vero): 9.7
antiherpes effectiveness relative to parent PAA (herpesvirus): over 200
TC50 (Vero cells): > 320 µg/mL
IC50 (Vaccinia virus [13]; Orthopoxvirus vaccinia): 10 µg/mL (≈ 39.2 µM)
TI (Vaccinia virus [13]): 32.0
TI (CMV; HFF): 32.0
IC50 (CMV; Human betaherpesvirus 5, HFF): 10 µg/mL (≈ 39.2 µM)
IC50 (Paramyxo-3; HEp-2): 10 µg/mL (≈ 39.2 µM)
TI (Paramyxo-3; Hep-2): 32.0
TI (TC50/IC50) [14]: > 18.59 and > 18.80
effect on humoral immune response (humoral immune response): does not appear to significantly alter humoral immune response
Ka, avidity relative to carbamyl phosphate [15]: 1000 ×
gross pathology (vaccinia virus [16]; PALA 125 mg/kg i.v. bolus): dark red discoloration of the liver
lesion development (vaccinia virus [16]; PALA 125 mg/kg, days 1 and 7): greater than what was seen in monkeys treated daily with PALA at a lower dose
virus titers in skin (vaccinia virus [16]; PALA 125 mg/kg, days 1 and 7): Higher titers
lesion development (vaccinia virus [16]; PALA 50, rifampicin 10 or both, mg/kg/day i.v.): effective in reducing lesion development and size
Weight (vaccinia virus [16]; day 0, PALA 125 mg/kg day 1 & 7): 3.2 kg and 3.4 kg and 4.4 kg
Weight (vaccinia virus [16]; day 0, PALA 50, rifampicin 10 mg/kg/d or both): 2.4 kg and 3.4 kg and 2.6 kg
Vaccinia Lesion Score, group mean (vaccinia virus [16]; day 3, PALA 125 mg/kg day 1 & 7): 0.5
Vaccinia Lesion Score, group mean (vaccinia virus [16]; day 3, PALA 50, rifampicin 10 mg/kg/d or both): 0.1
Vaccinia Lesion Score, group mean (vaccinia virus [16]; day 6, PALA 125 mg/kg day 1 & 7): 0.7
Vaccinia Lesion Score, group mean (vaccinia virus [16]; day 6, PALA 50, rifampicin 10 mg/kg/d or both): 0.6
Vaccinia Lesion Score, group mean (vaccinia virus [16]; day 7, PALA 125 mg/kg day 1 & 7): 0.9
Vaccinia Lesion Score, group mean (vaccinia virus [16]; day 7, PALA 50, rifampicin 10 mg/kg/d or both): 0.5
Vaccinia Lesion Score, group mean (vaccinia virus [16]; [17]): 1.3
Vaccinia Lesion Score (vaccinia virus [16]; [17]): 0.7 and 1.8
Vaccinia Lesion Score, group mean (vaccinia virus [16]; day 8, PALA 50, rifampicin 10 mg/kg/d or both): 0.5
Vaccinia Lesion Score, group mean (vaccinia virus [16]; day 9, PALA 125 mg/kg day 1 & 7): 1.2
Vaccinia Lesion Score, group mean (vaccinia virus [16]; day 9, PALA 50, rifampicin 10 mg/kg/d or both): 0.3
Vaccinia Lesion Score, group mean (vaccinia virus [16]; [18]): 0
Vaccinia Lesion Score (vaccinia virus [16]; [18]): 0
Vaccinia Lesion Score, group mean (vaccinia virus [16]; [19]): 0
Weight (vaccinia virus [16]; [19]): 2.2 kg and 3.2 kg and 2.4 kg
Vaccinia Lesion Score (vaccinia virus [16]; [19]): 0
Vaccinia Lesion Score, group mean (vaccinia virus [16]; [20]): 0.5
Vaccinia Lesion Score (vaccinia virus [16]; [20]): 0.3 and 0.7
Vaccinia Lesion Score, group mean (vaccinia virus [16]; [21]): 0
Vaccinia Lesion Score (vaccinia virus [16]; [21]): 0
Weight (vaccinia virus [16]; day 14, PALA 125 mg/kg day 1 & 7): 3.2 kg and 4.4 kg
Weight (vaccinia virus [16]; day 14, PALA 50, rifampicin 10 mg/kg/d or both): 2.0 kg and 3.2 kg and 2.4 kg
Weight (vaccinia virus [16]; day 21, PALA 125 mg/kg day 1 & 7): 3.4 kg and 4.2 kg
Weight (vaccinia virus [16]; day 21, PALA 50, rifampicin 10 mg/kg/d or both): 2.0 kg and 3.4 kg and 2.6 kg
signs of toxicity (vaccinia virus [16]; except one monkey at PALA 125 mg/kg bolus): No appreciable signs of toxicity
Titer of vaccinia virus in skin biopsy (vaccinia virus [16]; head prints day 6, PALA 125 mg/kg day 1 & 7): 1.3 × 10^5 PFU/ml and 1.8 × 10^10 PFU/ml
therapeutic index (RNA and DNA viruses): about 32
